Assay [1] has as its target T1, D4 human receptors (Homo sapiens, UniProt P21917).
T1 construct: expressed in transfected cells; host or cells: CHO cells
T1 sequence (P21917 1-419): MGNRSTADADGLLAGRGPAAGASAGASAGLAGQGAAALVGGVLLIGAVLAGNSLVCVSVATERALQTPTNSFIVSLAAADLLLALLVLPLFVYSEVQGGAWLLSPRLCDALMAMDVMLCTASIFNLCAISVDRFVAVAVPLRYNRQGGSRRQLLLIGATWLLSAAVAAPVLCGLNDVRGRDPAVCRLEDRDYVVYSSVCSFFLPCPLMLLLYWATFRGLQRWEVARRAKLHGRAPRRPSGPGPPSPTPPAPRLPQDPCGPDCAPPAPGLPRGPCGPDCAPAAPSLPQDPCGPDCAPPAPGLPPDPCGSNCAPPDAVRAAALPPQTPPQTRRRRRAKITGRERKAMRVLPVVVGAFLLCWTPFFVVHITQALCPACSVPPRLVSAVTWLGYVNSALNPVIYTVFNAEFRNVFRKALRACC
Briefly: D4 Radioligand Receptor Binding Assay ([3H] YM-09151-2, CHO cell membranes). The note with it: compound 10^−7 M, singlicate, [3H] YM-09151-2 0.15-0.25 nM. Summed up:
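Membranes from CHO cells expressing human D4 receptor incubated with [3H] YM-09151-2 (0.15-0.25 nM) and compound at one concentration (10^−7 M, singlicate) for 120 min at 27° C, then filtered.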

The target in assay [2] is T2, 5-HT1A (Homo sapiens, UniProt P08908).
T2 sequence (P08908 1-422): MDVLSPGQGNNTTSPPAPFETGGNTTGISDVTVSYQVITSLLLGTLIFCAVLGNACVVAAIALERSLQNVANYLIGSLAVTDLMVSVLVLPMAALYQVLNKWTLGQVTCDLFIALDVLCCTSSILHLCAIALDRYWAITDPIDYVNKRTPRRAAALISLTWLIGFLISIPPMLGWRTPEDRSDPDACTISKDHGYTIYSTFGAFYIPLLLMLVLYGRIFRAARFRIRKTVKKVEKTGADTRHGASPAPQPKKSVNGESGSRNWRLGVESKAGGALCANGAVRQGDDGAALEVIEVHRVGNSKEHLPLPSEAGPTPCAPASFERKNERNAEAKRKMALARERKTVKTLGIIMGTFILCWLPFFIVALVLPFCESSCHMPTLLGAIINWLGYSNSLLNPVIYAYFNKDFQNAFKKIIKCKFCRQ
Briefly: 5HT1A Radioligand Receptor Binding Assay ([3H]-8-OH-DPAT, CHO cell membranes). Set-up: expressed in transfected cells; host or cells: CHO cells. The settings on record: CHO membranes, human 5-HT1A. Summed up: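 CHO-cell membranes expressing human 5-HT1A incubated with [3H]-8-OH-DPAT (0.6-0.7 nM) for 60 minutes at 27° C, filtered and scintillation counted; non-specific binding defined with 10^−5 M 5-HT. Compounds tested singly at 10^−7 M as % of control specific binding; IC50 from one-site nonlinear regression.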

Assay [3] addresses 5-HT2A (Mus musculus, UniProt P35363). Briefly: 5-HT2 Functional Assay (PI Turnover) in cerebral cortex miniprisms. The note with it: 10 μM compound, inhibition of PI turnover accumulation induced by 100 μM 5-HT. It counts as biochemical. The method, then: 5-H T2 Functional Assay (PI Turnover)
Cross-chopped miniprisms (350×350 μm) were prepared from mouse whole cerebral cortices and incubated for 60 minutes at 37° C. in Krebs-Henseleit buffer containing 2 g/l glucose.
Cerebral cortex miniprisms were distributed in vials and incubated for 30 minutes with approximately 170 nM [^3H]-myoinositol (10-20 Ci/mmol) and […] lithium chloride. Samples were divided in different groups in triplicate: control, 100 μM 5-HT, 10 and 30 μM flibanserin+100 μM 5-HT, as standards, and 10 μM of the different compound under investigation+100 μM 5-HT. When 5-HT was added the incubation continued for 45 minutes. Compounds under investigation and flibanserin were added 10 minutes before dispensing 5-HT. Incubation was terminated by the addition of 940 μl chloroform-methanol (1:2 v/v). Further aliquots of chloroform (310 μl) and water (310 μl) were added and labeled inositol phosphates (1 Ps) were extracted from the aqueous phase by ion exchange chromatography using Dowex resin in the formate form. After addition of 10 ml of PicoFluor 40 scintillation cocktail (Packard), the radioactivity present in an aliquot (400 μl) of the aqueous extract was counted by liquid scintillation spectrometry.

5-HT2A, sequence (P35363 whole entry, looked up): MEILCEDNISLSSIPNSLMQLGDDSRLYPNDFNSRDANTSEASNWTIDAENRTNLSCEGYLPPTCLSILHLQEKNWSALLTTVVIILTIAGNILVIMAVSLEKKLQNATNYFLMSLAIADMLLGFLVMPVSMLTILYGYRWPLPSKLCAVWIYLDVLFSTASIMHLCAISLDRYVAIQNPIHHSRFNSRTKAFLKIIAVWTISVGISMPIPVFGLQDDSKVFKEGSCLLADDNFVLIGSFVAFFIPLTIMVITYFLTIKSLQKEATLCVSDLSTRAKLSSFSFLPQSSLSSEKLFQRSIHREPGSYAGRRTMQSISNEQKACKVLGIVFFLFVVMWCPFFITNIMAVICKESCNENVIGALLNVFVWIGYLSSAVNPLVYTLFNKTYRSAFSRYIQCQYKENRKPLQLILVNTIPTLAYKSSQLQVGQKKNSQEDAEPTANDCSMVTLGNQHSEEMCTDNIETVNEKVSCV

On to `CCNC(=O)OCCn1c(=O)n(CCN2CCN(c3cccc(C)c3C)CC2)c2ccccc21` [Compound 215], for which the inhibition (usually the percentage by which the read-out fell short of the control) at 0.1 µM amounted to 48% in assay [1] and 98% in assay [2] (compound 10^−7 M, singlicate, [3H]-8-OH-DPAT 0.6-0.7 nM). Also, the IC50 (in general, the concentration that inhibits the measured activity by half) in assay [2] ([3H]-8-OH-DPAT, read-out: 5-HT1A Receptor Binding IC50) stood at 0.85 nM. Further, the “5-HT2A PI Turnover % inhibition” value in assay [3] is 83%.

For the origin of these results see US6521623B1, “N,N'-disubstituted benzimidazolone derivatives with affinity at the serotonin and dopamine receptors” (Boehringer Ingelheim Pharma KG, priority 2000, dated 2003).
